“And” between values parts separate entries of the source, which are not always exact repeats. Equal values may be shown once.
Columns and labels:
[1] = biological target: T1, Rat2 fibroblasts transformed with v-Src/Hu c-Src fusion gene (Homo sapiens, UniProt P12931, cells depend on it, form not given); assay: Anchorage independent Src-transformed fibroblast proliferation test procedure; format: cell-based, rat; details: for GI50: rat2 fibroblasts transformed with v-src/hu c-src fusion gene, read-out: Src TF prolif IC50
T1 construct: fused on or other part: The v-Src frame of Rous sarcoma virus: everything outside the catalytic domain, namely the N-terminal unique/SH3/SH2 part; Candidates are Prague C (P00526), then Schmidt-Ruppin A (P00524)
T1 sequence (P12931 whole entry, change not shown, the tested form may be a part): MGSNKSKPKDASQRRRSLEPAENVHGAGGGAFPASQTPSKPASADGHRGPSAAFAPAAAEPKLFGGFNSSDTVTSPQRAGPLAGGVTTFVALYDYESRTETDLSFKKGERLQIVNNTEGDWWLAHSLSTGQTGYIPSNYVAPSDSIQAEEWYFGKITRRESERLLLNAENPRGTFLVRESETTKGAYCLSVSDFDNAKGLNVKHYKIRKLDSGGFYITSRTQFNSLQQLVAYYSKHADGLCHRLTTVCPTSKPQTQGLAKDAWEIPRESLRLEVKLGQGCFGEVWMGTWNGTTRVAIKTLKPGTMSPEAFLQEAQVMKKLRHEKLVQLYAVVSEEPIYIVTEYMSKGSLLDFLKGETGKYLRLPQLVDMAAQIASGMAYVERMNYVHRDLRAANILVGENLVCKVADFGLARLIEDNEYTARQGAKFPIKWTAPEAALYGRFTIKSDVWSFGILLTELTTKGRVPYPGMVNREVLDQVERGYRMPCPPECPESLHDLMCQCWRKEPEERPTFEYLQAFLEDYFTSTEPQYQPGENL
Text: Anchorage Independent Src-transformed Fibroblast Proliferation Test Procedure: Rat2 fibroblasts stably transformed with a plasmid containing CMV promotor controlled v-Src/Hu c-Src fusion gene in which the catalytic domain of human c-Src is inserted in place of the v-Src catalytic domain in the v-Src gene are used for the measurement of src dependent suspension growth.

Row | SMILES | melting point | GI50 [1] | Src TF prolif % Inh ([1]; @ dose 10 μM) | Src TF prolif % Inh ([1]; @ dose 0.22 μM)
1 | COc1cc(Nc2c(C#N)cnc3nc4cc(OCCCl)c(OC)cc4cc23)c(Cl)cc1Cl [Example 172, 8-(2-Chloroethoxy)-4-(2,4-dichloro-5-methoxyanilino)-7-methoxybenzo[b][1,8]naphthyridine-3-carbonitrile] | 227 to 230 °C (dec.) | 1870 nM | – | –
2 | COc1cc(Nc2c(C#N)cnc3nc4cc(OC)c(OC)cc4cc23)c(Cl)cc1Cl [Example 165, 4-(2,4-Dichloro-5-methoxyanilino)-7,8-dimethoxybenzo[b][1,8]naphthyridine-3-carbonitrile] | 297 °C (dec.) | > 10000 nM | – | –
3 | CCOc1cc2cc3ncc(C#N)c(Nc4cc(OC)c(Cl)cc4C)c3cc2cc1OCCN1CCOCC1 [Example 190, 4-(4-Chloro-5-methoxy-2-methylanilino)-8-ethoxy-7-[2-(4-morpholinyl)ethoxy]benzo[g]quinoline-3-carbonitrile] | 195 to 196 °C | 170 nM | – | –
4 | COc1cc(Nc2c(C#N)cnc3cc4cc(OC)c(OCCN5CCN(C)CC5)cc4cc23)c(Cl)cc1C [Example 202, 4-(2-Chloro-5-methoxy-4-methylanilino)-8-methoxy-7-[2-(4-methyl 1-piperazinyl)ethoxy]benzo[g]quinoline-3-carbonitrile] | 218 to 235 °C and 220 to 227 °C | 68 nM | – | –
5 | CCOc1cc2cc3c(Nc4cc(OC)c(Cl)cc4C)c(C#N)cnc3cc2cc1OCCN1CCOCC1 [Example 191, 4-(4-Chloro-5-methoxy-2-methylanilino)-7-ethoxy-8-[2-(4-morpholinyl)ethoxy]benzo[g]quinoline-3-carbonitrile] | 201 to 203 °C | 22 nM | – | –
6 | CCOc1cc2cc3c(Nc4cc(OC)c(Cl)cc4C)c(C#N)cnc3cc2cc1OCCN(CC(N)=O)CC(N)=O [Example 194, 2-(Carbamoylmethyl-{2-[4-(4-chloro-5-methoxy-2-methylphenylamino)-3-cyano-7-ethoxybenzo[g]quinolin-8-yloxy]-ethyl}-amino)-acetamide] | 168 to 170 °C | > 10000 nM | – | –
7 | COc1cc(Nc2c(C#N)cnc3cc4cc(OCCCN5CCOCC5)c(OC)cc4cc23)c(Cl)cc1Cl [Example 157, 4-(2,4-Dichloro-5-methoxyphenylamino)-7-methoxy-8-(3-morpholin-4-yl-propoxy)benzo[g]quinoline-3-carbonitrile] | 205 to 208 °C | 38 nM | – | –
8 | COc1cc(Nc2c(C#N)cnc3nc4cc(OCCN5CCOCC5)c(OC)cc4cc23)c(Cl)cc1Cl [Example 173, 4-(2,4-Dichloro-5-methoxyanilino)-7-methoxy-8-[2-(4-morpholinyl)ethoxy]benzo[b][1,8]naphthyridine-3-carbonitrile] | 242 to 244 °C (dec.) | 3740 nM | – | –
9 | COc1cc(Nc2c(C#N)cnc3cc4cc(OC)c(OCCN5CCC(O)CC5)cc4cc23)c(Cl)cc1C [Example 207, 4-(2-Chloro-5-methoxy-4-methylanilino)-8-methoxy-7-[2-(4-hydroxy-1-piperidinyl)ethoxy]benzo[g]quinoline-3-carbonitrile] | 205 to 235 °C | 929 nM | – | –
10 | COc1cc(Nc2c(C#N)cnc3cc4c(cc23)ncn4CCN2CCOCC2)c(C)cc1Cl [Example 57, 8-(4-Chloro-5-methoxy-2-methylanilino)-3-[2-(4-morpholinyl)ethyl]-3H-imidazo[4,5-g]quinoline-7-carbonitrile] | 246 to 248 °C | – | 0% | –
11 | COc1cc2cc3ncc(C#N)c(Nc4ccc(F)c(Cl)c4)c3cc2cc1OCCN1CCOCC1 [Example 212, 4-(3-Chloro-4-fluoroanilino)-8-methoxy-7-[2-(4-morpholinyl)ethoxy]benzo[g]quinoline-3-carbonitrile] | 205 to 210 °C | > 10000 nM | – | –
12 | COc1cc(Nc2c(C#N)cnc3c2C=C2N=CN=C2C3)cc(OC)c1OC [Example 42, 8-(3,4,5-Trimethoxyanilino)imidazo[4,5-g]quinoline-7-carbonitrile] | > 260 °C | – | – | 50%
